In patent US9453034B2, “C2-azaspiro iminothiazine dioxides as BACE inhibitors, compositions, and their use” (Merck Sharp & Dohme Corp., priority 2013, dated 2016):
pKi: −log10 of the molar value.

Columns and labels:
[1] = biological target: soluble human BACE1 catalytic domain (Homo sapiens (Human), UniProt P56817); assay: BACE1 HTRF FRET Assay; format: biochemical; conditions: Ki calculated from IC50 using the Cheng-Prusoff equation; QSY7-APPswe-Eu substrate, pH 5.0
Text: Reagents: Na^+-Acetate pH 5.0; 1% Brij-35; Glycerol; Dimethyl Sulfoxide (DMSO);
A homogeneous time-resolved FRET assay can be used to determine IC50 values for inhibitors of the soluble human BACE1 catalytic domain. This assay monitors the increase of 620 nm fluorescence that resulted from BACE1 cleavage of an APPswedish APP^swe mutant peptide FRET substrate (QSY7-[…]-Europium-amide). This substrate contains an N-terminal QSY7 moiety that serves as a quencher of the C-terminal Europium fluorophore (620 nm Em). […] Inhibition of BACE1 cleavage of the QSY7-APP^swe-Eu substrate by inhibitors is manifested as a suppression of 620 nm fluorescence.
Reactions are initiated by addition of 10 μl of 600 nM QSY7-APP^swe-Eu substrate (200 nM final) to give a final reaction volume of 30 μl in a 384 well Nunc HTRF plate. The reactions are incubated at 30° C. for 1.5 hours. The 620 nm fluorescence is then read on a Rubystar HTRF plate reader (BMG Labtechnologies) using a 50 millisecond delay followed by a 400 millisecond acquisition time window. Inhibitor IC50 values are derived from non-linear regression analysis of concentration response curves.

[2] = biological target: purified human autoBACE-2 (Homo sapiens (Human), UniProt Q9Y5Z0); assay: BACE-2 Assay (BACE-HTRF assay); format: biochemical; conditions: Ki calculated from IC50 using the Cheng-Prusoff equation; QSY7-EISEVNLDAEFC-Eu-amide substrate, pH 5.0; read-out: BACE2 Ki
Protocol: Inhibitor IC50s at purified human autoBACE-2 are determined in a time-resolved endpoint proteolysis assay that measures hydrolysis of the QSY7-EISEVNLDAEFC-Eu-amide FRET peptide substrate (BACE-HTRF assay). BACE-mediated hydrolysis of this peptide results in an increase in relative fluorescence (RFU) at 620 nm after excitation with 320 nm light. Inhibitor compounds, prepared at 3× the desired final concentration in 1×BACE assay buffer (20 mM sodium acetate pH 5.0, 10% glycerol, 0.1% Brij-35) supplemented with 7.5% DMSO are pre-incubated with an equal volume of autoBACE-2 enzyme diluted in 1×BACE assay buffer (final enzyme concentration 1 nM) in black 384-well NUNC plates for 30 minutes at 30° C. The assay is initiated by addition of an equal volume of the QSY7-EISEVNLDAEFC-Eu-amide substrate (200 nM final concentration, Km=8 μM […] for autoBACE-2) prepared in 1×BACE assay buffer supplemented with 7.5% DMSO and incubated for 90 minutes at 30° C. DMSO is present at 5% final concentration in the assay. Following laser excitation of sample wells at 320 nm, the fluorescence signal at 620 nm is collected for 400 ms following a 50 μs delay on a RUBYstar HTRF plate reader (BMG Labtechnologies). Raw RFU data is normalized to maximum (1.0 nM BACE/DMSO) and minimum (no enzyme/DMSO) RFU values. IC50s are determined by nonlinear regression analysis (sigmoidal dose response, variable slope) of percent inhibition data with minimum and maximum values set to 0 and 100 percent respectively. Similar IC50s are obtained when using raw RFU data. The Ki values are calculated from the IC50 using the Cheng-Prusoff equation.

Chain of purified human autoBACE-2 (Q9Y5Z0 63-473): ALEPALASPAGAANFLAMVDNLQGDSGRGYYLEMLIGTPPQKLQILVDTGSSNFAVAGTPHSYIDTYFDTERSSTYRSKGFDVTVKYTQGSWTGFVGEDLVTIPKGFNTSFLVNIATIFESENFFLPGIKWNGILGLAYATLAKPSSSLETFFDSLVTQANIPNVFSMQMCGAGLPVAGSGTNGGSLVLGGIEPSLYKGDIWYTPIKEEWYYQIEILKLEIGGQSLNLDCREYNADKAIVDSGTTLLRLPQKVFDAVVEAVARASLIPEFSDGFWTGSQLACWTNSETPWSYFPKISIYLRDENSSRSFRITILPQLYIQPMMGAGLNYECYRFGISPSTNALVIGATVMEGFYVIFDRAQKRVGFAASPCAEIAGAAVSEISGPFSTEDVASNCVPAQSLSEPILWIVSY
Chain of soluble human BACE1 catalytic domain (P56817 75-416): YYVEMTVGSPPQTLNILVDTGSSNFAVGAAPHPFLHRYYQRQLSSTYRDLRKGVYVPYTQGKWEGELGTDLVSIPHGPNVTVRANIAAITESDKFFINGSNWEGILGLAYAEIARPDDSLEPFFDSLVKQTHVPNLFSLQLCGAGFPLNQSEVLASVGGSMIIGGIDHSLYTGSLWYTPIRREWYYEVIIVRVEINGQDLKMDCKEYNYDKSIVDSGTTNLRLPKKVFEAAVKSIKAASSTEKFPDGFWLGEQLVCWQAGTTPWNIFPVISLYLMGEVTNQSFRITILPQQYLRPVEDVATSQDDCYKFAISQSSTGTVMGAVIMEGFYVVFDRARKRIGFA

Structure (SMILES)	pKi [1]	pKi [2]
COc1cnc(C(=O)Nc2ccc(F)c([C@]3(C)CS(=O)(=O)C4(CN(C)C4)C(=N)N3)c2)cn1 [Example 4, N-{4-fluoro-3-[(7R)-9-imino-2,7-dimethyl-5,5-dioxido-5-thia-2,8-diazaspiro[3.5]non-7-yl]phenyl}-5-methoxypyrazine-2-carboxamide]	8.10	8.21
COc1cnc(C(=O)Nc2ccc(F)c([C@]3(C)CS(=O)(=O)C4(CCN(C)CC4)C(=N)N3)c2)c(C)c1 [Example 33, N-{4-fluoro-3-[(3R)-5-imino-3,9-dimethyl-1,1-dioxido-1-thia-4,9-diazaspiro[5.5]undec-3-yl]phenyl}-5-methoxy-3-methylpyridine-2-carboxamide]	7.43	7.64
COc1ccc(C(=O)Nc2ccc(F)c([C@]3(C)CS(=O)(=O)C4(CN(C(C)=O)C4)C(=N)N3)c2)nc1 [Example 37, (R)—N-(3-(2-acetyl-9-imino-7-methyl-5,5-dioxido-5-thia-2,8-diazaspiro[3.5]nonan-7-yl)-4-fluorophenyl)-5-methoxypicolinamide]	8.80	8.96
Cc1cc(C#N)cnc1C(=O)Nc1ccc(F)c([C@]2(C)CS(=O)(=O)C3(CCN(C)CC3)C(=N)N2)c1 [Example 35, 5-cyano-N-{4-fluoro-3-[(3R)-5-imino-3,9-dimethyl-1,1-dioxido-1-thia-4,9-diazaspiro[5.5]undec-3-yl]phenyl}-3-methylpyridine-2-carboxamide]	7.46	7.62
CN1CC2(C1)C(=N)N[C@](C)(c1cc(NC(=O)c3ccc(Cl)cn3)ccc1F)CS2(=O)=O [Example 5, 5-chloro-N-{4-fluoro-3-[(7R)-9-imino-2,7-dimethyl-5,5-dioxido-5-thia-2,8-diazaspiro [3.5]non-7-yl]phenyl}pyridine-2-carboxamide]	8.66	9.40
COc1cnc(C(=O)Nc2ccc(F)c([C@]3(C)CS(=O)(=O)C4(CCN(C)CC4)C(=N)N3)c2)c(C)n1 [Example 34, N-{4-fluoro-3-[(3R)-5-imino-3,9-dimethyl-1,1-dioxido-1-thia-4,9-diazaspiro[5.5]undec-3-yl]phenyl}-5-methoxy-3-methylpyrazine-2-carboxamide]	7.43	7.64
CN1CCC2(CC1)C(=N)N[C@](C)(c1cc(NC(=O)c3ccc(OC(F)F)cn3)ccc1F)CS2(=O)=O [Example 31, 5-(difluoromethoxy)-N-{4-fluoro-3-[(3R)-5-imino-3,9-dimethyl-1,1-dioxido-1-thia-4,9-diazaspiro[5.5]undec-3-yl]phenyl}pyridine-2-carboxamide]	7.96	7.57
CN1CCC2(CC1)C(=N)N[C@](C)(c1cc(NC(=O)c3ccc(C#N)cn3)ccc1F)CS2(=O)=O [Example 25, 5-cyano-N-{4-fluoro-3-[(3R)-5-imino-3,9-dimethyl-1,1-dioxido-1-thia-4,9-diazaspiro[5.5]undec-3-yl]phenyl}pyridine-2-carboxamide]	8.19	8.08
CN1CCC2(CC1)C(=N)N[C@](C)(c1cc(NC(=O)c3ccc(OCF)cn3)ccc1F)CS2(=O)=O [Example 32, N-{4-fluoro-3-[(3R)-5-imino-3,9-dimethyl-1,1-dioxido-1-thia-4,9-diazaspiro[5.5]undec-3-yl]phenyl}-5-(fluoromethoxy) pyridine-2-carboxamide]	7.85	7.96
CN1CCC2(CC1)C(=N)N[C@](C)(c1cc(NC(=O)c3ccc(OC(F)(F)F)cn3)ccc1F)CS2(=O)=O [Example 30]	7.82	7.28
COc1ccc(C(=O)Nc2ccc(F)c([C@]3(C)CS(=O)(=O)C4(CNC4)C(=N)N3)c2)nc1 [Example 36d, (R)—N-(4-fluoro-3-(9-imino-7-methyl-5,5-dioxido-5-thia-2,8-diazaspiro[3.5]nonan-7-yl)phenyl)-5-methoxypicolinamide]	7.66	7.80
